SMILES strings stand for the structures. Several values for one entry are separate records, joined by “and”; a condition that tells them apart may be missing. Identical values can stand only once. Activity calls are given as the source filed them.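 The calls were made as follows: active = fitted half-maximal concentration for change in GFP expression of 33 µM or less; inactive = the rest.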

The assay in a line: concentration-dependent AGP1-GFP change, TOR pathway – cell-based, flow cytometry, S. cerevisiae, MLPCN hits, dose response (AID 2743). The settings on record: S. cerevisiae AGP1-GFP strain, flow cytometry GFP, 3 h; at 33 µM (top of the series).
On to `CCOC(=O)/C(=C\c1cn(C)c2ccccc12)[N+](=O)[O-]`, for which the GFP fluorescence (kMESF) is 41.9 kMESF (inactive). The same measure for `O=S(=O)(/N=C(\Sc1ccc(Cl)cc1)c1ccccc1)c1ccccc1`: 36.1 kMESF (inactive).

On to `COC(CNC(=O)c1ccc2c3c(onc13)-c1ccccc1C2=O)OC`, for which the GFP fluorescence (kMESF) is 1.89 kMESF (inactive). The result for `CC(C)[C@]1(c2ccc(Cl)cc2)ON(c2ccccc2C(F)(F)F)C1=O` reads 39.3 kMESF (inactive).

With `N#Cc1cc([N+](=O)[O-])c(-n2nnc3ccccc32)c([N+](=O)[O-])c1`, the GFP fluorescence (kMESF) was 41.5 kMESF (inactive). The same measure for `Cc1ccc(/C=N/Nc2ncc(Cl)cc2Cl)s1`: 35.6 kMESF (inactive); for `O=C1/C(=C\c2ccc(O)c(O)c2)SC(=S)N1Cc1ccccc1`: 10.8 kMESF (inactive); for `CC(=O)Oc1ccc(N2C(=O)C3C4C=CC(CO)(O4)C3C2=O)cc1` (centres undefined): 41.3 kMESF (inactive).

With `Cc1cc(S(=O)(=O)ON2C(=O)c3ccccc3C2=O)ccc1F`, the GFP fluorescence (kMESF) is 43.2 kMESF (inactive). The same measure for `O=C(Nc1nc2ccc(F)cc2s1)c1ccccn1`: 41.4 kMESF (inactive). With `CC1=CC(=O)C(C(C)C)=C/C1=N/OS(=O)(=O)c1ccccc1`, the GFP fluorescence (kMESF) is 36.5 kMESF (inactive). The same measure for `O=C1C=CC(=O)N1N(c1ccccc1)c1ccccc1`: 37 kMESF (inactive); for `Oc1c(CN2CCN(c3ccc(F)cc3)CC2)cc(Cl)c2cccnc12`: 41.8 kMESF (inactive); for `C=CCN1C(=O)/C(=C/c2cccs2)C(=O)NC1=S`: 20.4 kMESF (inactive).

Regarding `CC(C)Cn1c(=O)c(C(=O)Nc2ccncc2)c(O)c2ccccc21`, the GFP fluorescence (kMESF) was 16.1 kMESF (inactive). The result for `COc1cc(NC(=O)c2ccc(C)cc2)ccc1NC(=O)c1cc2ccccc2o1` reads 43.8 kMESF (inactive); that for `O=C1N(c2ccccc2C(F)(F)F)OC1(Cc1ccccc1)c1ccccc1` (centres undefined), 41.5 kMESF (inactive); that for `Cc1ccc(C(CC(=O)O)NC(=O)c2ccc(S(=O)(=O)N3CC(C)OC(C)C3)cc2)cc1` (centres undefined), 36.9 kMESF (inactive). Turning to `O=C(c1ccc([N+](=O)[O-])o1)N1CCN(c2nc3c(F)cc(F)cc3s2)CC1`, the GFP fluorescence (kMESF) was 30.3 kMESF (inactive).

For the molecule `C#CCOCCOCCOCCNc1nc(N2CCN(C(=O)CCCCCCCCCCNC(=O)[C@H](CCCCN)n3cc(C)nn3)CC2)nc(N2CCN(C(=O)CCCCCCCCCCNC(=O)[C@H](CCCN=C(N)N)n3cc(C[C@@H](C)CC)nn3)CC2)n1`, the GFP fluorescence (kMESF) was 43.6 kMESF (inactive). The result for `Oc1ccc2ccccc2c1/C=N/Nc1nnc(-c2ncc[nH]2)c2ccccc12` reads 21.8 kMESF (inactive); that for `CN(C)NC(=S)Nc1ccc(S(=O)(=O)N2CCCCC2)cc1`, 40.4 kMESF (inactive). For the molecule `COc1ccccc1N=Nc1ccc(O)c2ncccc12`, the GFP fluorescence (kMESF) was 49.5 kMESF (inactive). As for `Cc1cccc(N2C(=O)C(Cl)=C(Nc3c(C)n(C)n(-c4ccccc4)c3=O)C2=O)c1C`, the GFP fluorescence (kMESF) is 43.3 kMESF (inactive). With `C#CCOCCOCCOCCNc1nc(N2CCN(C(=O)CCCCCCCCCCNC(=O)[C@@H](CCC(=O)O)n3cc(CCCCCN)nn3)CC2)nc(N2CCN(C(=O)CCCCCCCCCCNC(=O)[C@H](CCCCN)n3cc(C[C@@H](C)CC)nn3)CC2)n1`, the GFP fluorescence (kMESF) is 51.4 kMESF (inactive). The result for `Cc1c(NC2=C(Cl)C(=O)N(c3ccccc3)C2=O)c(=O)n(-c2ccccc2)n1C` reads 41.3 kMESF (inactive); that for `O=c1oc(/C=C/c2ccc([N+](=O)[O-])s2)nc2ccccc12`, 37.9 kMESF (inactive); that for `O=C(CCS(=O)(=O)c1ccccc1)Nc1nc(-c2ccccn2)cs1`, 35.9 kMESF (inactive).

With `COc1ccc(NC2=C(Cl)C(=O)N(CCc3ccccc3)C2=O)cc1`, the GFP fluorescence (kMESF) is 43.7 kMESF (inactive). The result for `Cc1ccc(NC(=O)ON=C2CCCC2)cc1` reads 26.4 kMESF (inactive); that for `O=C(Nc1ccc(NC(=O)c2cc3ccccc3o2)cc1)c1ccco1`, 44.8 kMESF (inactive); that for `O=C(c1ccc(Cl)cc1)N1CCN(c2cccc3[nH]ccc23)CC1`, 46.1 kMESF (inactive). For `Cc1ccc2[nH]c(C)c(/C=C/c3cc[n+](C)cc3)c2c1`, the GFP fluorescence (kMESF) was 38.4 kMESF (inactive). On to `COc1ccc(/C=C2/C(=O)ON=C2c2ccccc2)cc1OC`, for which the GFP fluorescence (kMESF) was 27.1 kMESF (inactive). The same measure for `CCCN1CCc2c(sc(NC(=S)NC(=O)c3ccccc3)c2C#N)C1`: 42 kMESF (inactive); for `O=[N+]([O-])c1cc(F)c2cccnc2c1O`: 43.3 kMESF (inactive). As to `O=C(/C=C/c1cc(Br)ccc1O)c1ccco1`, the GFP fluorescence (kMESF) is 40.2 kMESF (inactive).

Take `O=C1CC(c2ccccc2)=NN1c1nc(-c2ccccc2)cs1`: the GFP fluorescence (kMESF) was 26 kMESF (inactive). The result for `CC(C)(C)c1cc(C(c2cccnc2)N2CCN(CCO)CC2)cc(C(C)(C)C)c1O` (centres undefined) reads 42.2 kMESF (inactive).

For the molecule `CC(C)(C)c1ccc(NC(=O)COC(=O)c2ccc([N+](=O)[O-])s2)cc1`, the GFP fluorescence (kMESF) is 14.7 kMESF (inactive). Regarding `O=c1c2cc(Br)ccc2nc(-c2ccc([N+](=O)[O-])cc2)n1O`, the GFP fluorescence (kMESF) is 29.6 kMESF (inactive). Turning to `Cc1ccc(S(=O)(=O)ON2C(=O)c3ccccc3C2=O)c(C)c1`, the GFP fluorescence (kMESF) was 33 kMESF (inactive). The same measure for `CCc1cccc2sc(N3CCN(C(=O)c4ccc([N+](=O)[O-])o4)CC3)nc12`: 12.4 kMESF (inactive); for `O=C(OCn1ncc(Br)c(Br)c1=O)c1ccccc1Cl`: 46 kMESF (inactive); for `CCOC(=O)C1=C(O)c2ccccc2C(=O)/C1=C\c1ccc(C)cc1`: -4.85 kMESF (inactive). As for `Cc1ccc(N=Nc2ccc(O)c3ncccc23)cc1`, the GFP fluorescence (kMESF) is 35.1 kMESF (inactive). Consider `Cc1nc2ccc(NC(=O)c3oc4ccc(F)cc4c3C)cc2s1`, for which the GFP fluorescence (kMESF) is 35.7 kMESF (inactive). As for `CCOc1cc(C=C2C(=O)c3ccccc3C2=O)ccc1OCC(=O)Nc1ccc(C)cc1`, the GFP fluorescence (kMESF) is 36.1 kMESF (inactive). The result for `Cc1ccc(NC(=O)CCc2ccccc2)cc1S(=O)(=O)N1CCOCC1` reads 40.4 kMESF (inactive); that for `CCC(C)/C(C)=N/NC(=O)c1ccc(COc2ccc(Cl)c(C)c2)cc1` (centres undefined), 41.2 kMESF (inactive); that for `COc1cc(/C=C/[N+](=O)[O-])ccc1O`, 32.3 kMESF (inactive). The result for `COc1cc(CNC(=O)CCCCCCC(C)C)ccc1O` reads 46.8 kMESF (inactive); that for `CC(=O)Oc1oc(-c2ccccc2)nc1C=Nc1ccc(N(C)C)cc1`, 43.2 kMESF (inactive); that for `CN(C)c1ccc(/C=C/c2cc[n+](C)cc2)cc1`, 30 kMESF (inactive). The same measure for `Oc1c(C(Nc2nc3ccccc3s2)c2ccco2)ccc2cccnc12` (centres undefined): 39.7 kMESF (inactive). Take `Oc1ccc(COCc2ccccc2)c2cccnc12`: the GFP fluorescence (kMESF) was 36.3 kMESF (inactive).

With `O=[N+]([O-])c1ccc(O)c2ncccc12`, the GFP fluorescence (kMESF) was 39.4 kMESF (inactive) and 32.2 kMESF (inactive). Regarding `C/C(=N/NC(=O)c1ccc(C(C)(C)C)cc1)c1ccccn1`, the GFP fluorescence (kMESF) was 55.7 kMESF (inactive). Turning to `O=C1C(=O)c2ccccc2-c2ccccc21`, the GFP fluorescence (kMESF) is 17.5 kMESF (inactive). With `O=C(/C=C/Sc1ncn[nH]1)c1ccc(Cl)cc1`, the GFP fluorescence (kMESF) is 38 kMESF (inactive). The result for `COc1ccc2c(c1)c1nnc(SC)nc1n2C` reads 17.9 kMESF (inactive); that for `CC(=O)Oc1ccc(/C=c2\sc3ncnn3c2=O)cc1`, 36.7 kMESF (inactive).

Take `Cc1cc(C(=O)Nc2nc(-c3ccccn3)cs2)ccc1[N+](=O)[O-]`: the GFP fluorescence (kMESF) is 44.4 kMESF (inactive). The result for `O=C(Oc1c(Cl)cc(Cl)c2cccnc12)c1ccco1` reads 40.7 kMESF (inactive); that for `CC(C)(C)C(=O)NC(=S)NNC(=O)c1sc2ccccc2c1Cl`, 34.2 kMESF (inactive); that for `COc1cc(/C=C2\C(=O)ON=C2c2ccccc2)cc(Br)c1O`, 28.7 kMESF (inactive). The result for `Cc1ccc(NC(=O)c2nc(S(=O)(=O)Cc3ccccc3)ncc2Cl)cc1` reads 45.8 kMESF (inactive).

As to `Cc1ccsc1/C=N/Nc1ncc(Cl)cc1Cl`, the GFP fluorescence (kMESF) was 36 kMESF (inactive). Regarding `CCC(=O)Nc1ccc(NC(=O)c2cc3ccccc3o2)cc1`, the GFP fluorescence (kMESF) is 43.4 kMESF (inactive).

In the case of `CC(C)[C@@]1(c2ccccc2)ON(c2ccccc2C(F)(F)F)C1=O`, the GFP fluorescence (kMESF) was 37.1 kMESF (inactive). The same measure for `CCOc1ccc(N/N=C(/C#N)C(N)=O)cc1`: 54.7 kMESF (inactive); for `Cc1c(Br)c(=O)oc2c(Br)c(O)c(O)cc12`: 38 kMESF (inactive); for `Cc1ccc(NC(=O)c2cc(N3C(=O)C=CC3=O)ccc2N2CCOCC2)cc1Cl`: 36.2 kMESF (inactive). In the case of `CC(=O)N(C(C)=O)c1ncnc2c1c(-c1ccc(Cl)cc1)nn2C(C)(C)C`, the GFP fluorescence (kMESF) is 36.6 kMESF (inactive).

As to `Cc1ccc2c(nc3s/c(=C\c4ccc(-c5ccccc5C(=O)O)o4)c(=O)n32)c1C`, the GFP fluorescence (kMESF) was 49.9 kMESF (inactive).

`O=C1N(c2ccccc2C(F)(F)F)O[C@@]1(c1ccccc1)C1CCCCC1`: the GFP fluorescence (kMESF) is 36.2 kMESF (inactive). For `C=CCn1c(C)c(/C=C/c2cc[n+](C)cc2)c2ccccc21`, the GFP fluorescence (kMESF) was 42.5 kMESF (inactive). The same measure for `Cc1cc(O)c(C(=O)/C=C/c2c(F)c(F)c(F)c(F)c2F)c(=O)o1`: 21.2 kMESF (inactive); for `CC(C)CC(=O)NC(=S)Nc1nc(-c2ccccc2)cs1`: 38.8 kMESF (inactive).

The values are drawn from PubChem BioAssay AID2743 (NMMLSC, 2010).
